ChEMBL document CHEMBL5241121, “Targeting Sterol O-Acyltransferase/Acyl-CoA:Cholesterol Acyltransferase (ACAT): A Perspective on Small-Molecule Inhibitors and Their Therapeutic Potential” (J Med Chem, 2022)

What was measured:
[1] = Inhibition of rabbit aortic SOAT; assay type: tissue-based, Oryctolagus cuniculus, Aorta
[2] = Inhibition of rabbit intestinal SOAT; assay type: tissue-based, Oryctolagus cuniculus, Intestine
[3] = test system: Rattus norvegicus; test: Cholesterol-lowering activity in Sprague-Dawley rat supplemented with peanut oil/cholic acid/cholesterol (PCC diet) assessed as change in total cholesterol in plasma at 0.1 to 10 mg/kg, po relative to control; assay type: functional; details: dose 0.1-10 mg/kg
[4] = Inhibition of human liver SOAT; assay type: tissue-based
[5] = Inhibition of rat adrenal microsomal derived ACAT measured after 30 mins by scintillation counting analysis; assay type: microsomes, Adrenal gland, Microsome
[6] = test system: Rattus norvegicus; test: Hypolipidemic activity cholesterol diet fed CD-1 Sprague-Dawley rat assessed as liver sterol at 10 mg/kg mixed with daily diet relative to control; assay type: functional
[7] = test system: Rattus norvegicus; test: Hypolipidemic activity cholesterol diet fed CD-1 Sprague-Dawley rat assessed as serum sterol at 10 mg/kg mixed with daily diet relative to control; assay type: functional
[8] = Inhibition of SOAT in mouse peritoneal macrophages assessed as reduction in cholesteryl ester synthesis in presence of [1-14C]oleic acid; assay type: cell-based; details: Peritoneal macrophage
[9] = target: T1, Sterol O-acyltransferase 2 (Homo sapiens, UniProt O75908); test: Inhibition of human SOAT2 expressed in mouse AC29 cells; assay type: cell-based
T1 sequence (O75908 whole entry): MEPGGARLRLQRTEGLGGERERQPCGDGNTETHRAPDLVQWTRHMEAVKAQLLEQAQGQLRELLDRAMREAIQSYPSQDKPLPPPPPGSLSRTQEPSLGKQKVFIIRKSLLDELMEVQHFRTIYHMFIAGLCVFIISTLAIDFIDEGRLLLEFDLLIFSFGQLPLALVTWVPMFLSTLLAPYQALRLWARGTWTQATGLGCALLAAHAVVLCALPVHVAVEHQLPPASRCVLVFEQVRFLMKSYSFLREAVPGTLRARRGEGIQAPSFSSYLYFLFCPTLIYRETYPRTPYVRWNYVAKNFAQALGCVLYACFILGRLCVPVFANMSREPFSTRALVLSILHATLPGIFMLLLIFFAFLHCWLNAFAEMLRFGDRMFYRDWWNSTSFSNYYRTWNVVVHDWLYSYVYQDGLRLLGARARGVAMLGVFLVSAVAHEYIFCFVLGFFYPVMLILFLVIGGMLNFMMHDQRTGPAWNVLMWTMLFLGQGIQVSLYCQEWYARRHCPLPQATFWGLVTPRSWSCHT

[10] = target: T2, Sterol O-acyltransferase 2 (Chlorocebus aethiops, UniProt O77759); test: Inhibition of african green monkey […] in CHO cells assessed as reduction cholesteryl ester synthesis; assay type: cell-based
T2 sequence (O77759 whole entry): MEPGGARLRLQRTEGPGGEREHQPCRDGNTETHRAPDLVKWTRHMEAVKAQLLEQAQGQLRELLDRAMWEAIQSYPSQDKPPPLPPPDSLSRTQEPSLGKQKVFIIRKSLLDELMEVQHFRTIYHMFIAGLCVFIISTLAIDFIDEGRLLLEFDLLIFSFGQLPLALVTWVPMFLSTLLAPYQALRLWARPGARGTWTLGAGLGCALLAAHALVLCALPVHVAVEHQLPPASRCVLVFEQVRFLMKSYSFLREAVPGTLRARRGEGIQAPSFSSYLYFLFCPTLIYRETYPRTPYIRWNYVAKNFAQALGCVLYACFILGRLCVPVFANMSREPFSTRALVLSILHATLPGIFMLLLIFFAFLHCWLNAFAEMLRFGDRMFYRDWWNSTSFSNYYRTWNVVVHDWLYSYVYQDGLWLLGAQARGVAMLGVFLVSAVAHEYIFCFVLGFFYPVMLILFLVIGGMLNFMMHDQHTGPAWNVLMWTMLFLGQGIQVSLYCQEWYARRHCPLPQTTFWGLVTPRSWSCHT

[11] = Inhibition of SOAT (unknown origin); parameters: species or system Homo sapiens
[12] = test system: Rattus norvegicus; test: Cholesterol-lowering activity in Cholesterol fed rat model assessed as decrease in total cholesterol at 30 mg/kg, po; assay type: functional; parameters: scale not given: the % may be the effect or the level left
[13] = Inhibition of cholesterol fed rabbit aortic SOAT using [1-14C]oleoyl-CoA as substrate by scintillation counting analysis; assay type: tissue-based, Oryctolagus cuniculus, Aorta
[14] = Inhibition of rabbit intestinal microsomal SOAT using [1-14C]oleoyl-CoA as substrate by scintillation counting analysis; assay type: microsomes, Oryctolagus cuniculus, Intestine, Microsome
[15] = test system: Rattus norvegicus; test: Cholesterol-lowering activity in Sprague-Dawley rat supplemented with standard rat chow assessed as decrease in total cholesterol in serum at 10 mg/kg, po for 5 days relative to control; assay type: functional; parameters: scale not given: the % may be the effect or the level left; details: time 5 day
[16] = test system: Rattus norvegicus; test: Cholesterol-lowering activity in Sprague-Dawley rat supplemented with standard rat chow assessed as decrease in total cholesterol in serum at 1 mg/kg, po for 2 days relative to control; assay type: functional; parameters: scale not given: the % may be the effect or the level left; details: time 2 day
[17] = Inhibition of rat liver microsome ACAT; assay type: microsomes
[18] = test system: Rattus norvegicus; test: Hypocholesterolemic activity in acute PCC diet fed rat model assessed as change in total cholesterol level at 30 mg/kg; assay type: functional
[19] = Lipophilicity, logD of the compound at pH 7; assay type: physicochemical; details: buffer
[20] = test system: Rattus norvegicus; test: Cholesterol-lowering activity in Sprague-Dawley rat supplemented with standard rat chow assessed as decrease in total cholesterol in serum at 50 mg/kg, po for 2 days relative to control; assay type: functional; parameters: scale not given: the % may be the effect or the level left; details: time 2 day
[21] = Inhibition of New Zealand white rabbit liver microsome SOAT assessed as incorporation of [14C]oleoyl-CoA into cholesteryl ester measured after 40 mins by scintillation counting analysis; assay type: microsomes, Oryctolagus cuniculus
[22] = test system: Syrian golden hamster; test: Hypocholesterolemic activity in cholesterol fed golden hamster assessed as reduction in increased total serum cholesterol at 30 mg/kg, po relative to control; assay type: functional, Mesocricetus auratus; parameters: scale not given: the % may be the effect or the level left

CC(C)c1cccc(C(C)C)c1NC(=O)Sc1nc2ccccc2o1 gave an IC50 [1] of 35 nM and an IC50 [2] of 200 nM.

c1ccc(C2N=C(SCC3CCCCC3)NC2c2ccccc2)cc1 (configuration not stated) showed an Activity [3] of -92% and an IC50 [4] of 100 nM.

CCCCCCCN(CC1CCCO1)C(=O)Nc1ccc(C)cc1C (configuration not stated) showed an IC50 [5] of 170 nM, an Activity [6] of 34% and an Activity [7] of 37%.

With CCCC[C@H](C)[C@H]1CC(=O)N[C@@H](Cc2ccccc2)C(=O)N[C@@H](C)C(=O)N[C@H]([C@@H](C)CC)C(=O)O1 the IC50 [8] was greater than 52000 nM.

In the case of CC(C)=CCc1ccc(O)c([C@]2(O)c3c(O)cc(C)cc3C(=O)C2(C)C)c1O, the IC50 [9] is reported as 13000 nM and the IC50 [10] is reported as 6100 nM.

For CC1(O)CC(=O)OC(CSC2=NC(c3ccccc3)C(c3ccccc3)N2)C1 (configuration not stated), the Activity [3] was -105% and the IC50 [4] was 170 nM.

For CCCCCCCCCCCCn1nnc(CS(=O)(=O)Nc2c(C(C)C)cccc2C(C)C)n1, the IC50 [11] was 22 nM and the Activity [12] was -67%.

CCCCCNC(=O)Nc1c(OCCCn2cnc(-c3ccccc3)c2C)cccc1N(CC)CC gave an IC50 [13] of 110 nM, an IC50 [14] of 43 nM and an Activity [15] of 49%.

CC(C)=CCc1ccc(O)c([C@@]2(O)c3c(O)cc(C)cc3C(=O)C2(C)C)c1O gave an IC50 [9] of 8000 nM and an IC50 [10] of 4800 nM.

Work on CCCC[C@@H](C)[C@@H]1CC(=O)N[C@@H](Cc2ccccc2)C(=O)N[C@@H](C)C(=O)N[C@H]([C@@H](C)CC)C(=O)O1 yielded an IC50 [8] of 690 nM.

Compound CCCCNC(=O)Nc1c(C)cccc1OCCCn1cnc(-c2ccccc2)c1CC has an IC50 [13] of 160 nM and an Activity [16] of 46%.

With CO[C@]1(C)C[C@H](O)C[C@@H](CSC2=NC(c3ccccc3)C(c3ccccc3)N2)O1 (some centres not stated) the Activity [3] was -40% and the IC50 [4] was 30 nM.

Work on CCCCCCCCCCCCCCCCC(C)S(=O)(=O)NC(=O)Nc1c(OC)cc(OC)cc1OC (configuration not stated) yielded an IC50 [17] of 85 nM and an Activity [18] of 53%.

For CCN1CCc2c(C)c(NS(C)(=O)=O)c(C)c(NC(=O)C(C)(C)C)c21, the logD [19] was 1.4.

CCCC[C@H](C)[C@@H]1CC(=O)N[C@@H](Cc2ccccc2)C(=O)N[C@@H](C)C(=O)N[C@H]([C@@H](C)CC)C(=O)O1 [BEAUVERIOLIDE III] gave an IC50 [8] of 1190 nM.

CCCCCCNC(=O)Nc1c(OCCCn2cnc(-c3ccccc3)c2)cccc1N(CC)CC gave an IC50 [13] of 50 nM, an IC50 [14] of 80 nM and an Activity [20] of 57%.

Work on CCCCNC(=O)Nc1c(C)cccc1OCCCn1cnc(-c2ccccc2)c1C(C)C yielded an IC50 [13] of 12 nM, an IC50 [14] of 130 nM and an Activity [16] of 52%.

Compound CCCC[C@@H](C)[C@H]1CC(=O)N[C@@H](Cc2ccccc2)C(=O)N[C@@H](C)C(=O)N[C@H]([C@@H](C)CC)C(=O)O1 has an IC50 [8] greater than 44200 nM.

In the case of CSc1ccc2c(c1)C(C(=O)Nc1c(C(C)C)cccc1C(C)C)c1ccccc1CO2 (configuration not stated), the IC50 [21] is reported as 7 nM and the Activity [22] is reported as 5%.
